Values after ≈ are worked out from the molar mass of the structure shown. Active and inactive are the calls of the source. No cut-off for these calls is given here.
Assays:
Bacillus subtilis [1] = assay: Antibacterial activity against Bacillus subtilis 168 assessed as growth inhibition after 20 hrs by microtiter broth dilution method; assay type: functional; settings: subsp. subtilis str. 168, 20 h
Escherichia coli = assay: Binding affinity to Escherichia coli ribosomal A-site assessed as inhibition of GFP biosynthesis at 500 uM by transcription/translation assay relative to chloramphenicol
[2] = target: Transient receptor potential cation channel subfamily V member 1 (Homo sapiens, UniProt Q8NER1); assay: Inhibition of TRPV1-mediated membrane currents in human DRG neurons
Bacillus subtilis [3] = assay: Antibacterial activity against Bacillus subtilis 168 assessed as growth inhibition at 0.5 to 500 uM after 20 hrs by microtiter broth dilution method; assay type: functional, organism-based; settings: subsp. subtilis str. 168

Sequence of Transient receptor potential cation channel subfamily V member 1 (Q8NER1 whole entry): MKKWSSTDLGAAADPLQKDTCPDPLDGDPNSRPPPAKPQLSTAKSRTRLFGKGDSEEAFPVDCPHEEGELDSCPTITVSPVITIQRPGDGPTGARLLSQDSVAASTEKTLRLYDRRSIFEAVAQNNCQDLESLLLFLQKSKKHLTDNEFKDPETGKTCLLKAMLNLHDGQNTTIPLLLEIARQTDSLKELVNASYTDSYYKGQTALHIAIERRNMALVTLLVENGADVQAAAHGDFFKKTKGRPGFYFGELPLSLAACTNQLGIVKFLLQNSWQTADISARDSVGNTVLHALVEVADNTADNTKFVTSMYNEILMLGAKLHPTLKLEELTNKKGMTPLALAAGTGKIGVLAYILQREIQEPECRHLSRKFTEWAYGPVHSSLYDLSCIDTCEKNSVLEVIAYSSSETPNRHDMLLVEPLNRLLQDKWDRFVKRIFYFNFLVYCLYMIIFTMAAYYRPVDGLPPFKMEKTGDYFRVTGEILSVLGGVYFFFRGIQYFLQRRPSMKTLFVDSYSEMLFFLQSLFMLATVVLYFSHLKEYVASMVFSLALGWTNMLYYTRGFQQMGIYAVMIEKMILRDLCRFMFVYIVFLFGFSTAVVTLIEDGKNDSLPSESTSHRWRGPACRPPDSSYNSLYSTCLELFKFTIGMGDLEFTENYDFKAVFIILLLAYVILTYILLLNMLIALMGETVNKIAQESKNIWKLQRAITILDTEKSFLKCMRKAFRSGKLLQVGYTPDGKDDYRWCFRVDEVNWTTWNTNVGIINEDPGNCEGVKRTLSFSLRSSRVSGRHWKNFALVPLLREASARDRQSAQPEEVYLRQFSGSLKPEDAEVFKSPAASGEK

Row | SMILES | inhibition (Escherichia coli) | also measured
1 | COc1cc(CNC(=O)CCCC/C=C/C(C)C)ccc1O [CAPSAICIN] |  | MIC (Bacillus subtilis [1]): 63 µM (≈ 19.2 µg/mL)
2 | CC(=O)N1[C@H](CO)CS[C@@H]1[C@H](O)[C@@H](O)[C@@H](O)[C@H](O)CO | inactive | 
3 | O=c1[nH]c(=O)n2c(c1[N+](=O)[O-])NC(C(O)C(O)C(O)CO)C2O (configuration not stated) | 13% | 
4 | COc1cc(CNCCc2c[nH]c3ccccc23)ccc1OCc1ccc(F)cc1 |  | MIC (Bacillus subtilis [1]): 63 µM (≈ 25.5 µg/mL)
5 | Nc1[nH]c(C2OC(CO)C(O)C2O)nc1C(=O)NCc1ccccc1 (configuration not stated) | 22% | 
6 | OCC(O)C(O)C(O)C(O)C1NNC(=S)NN1 (configuration not stated) | inactive | 
7 | COc1cc(CNCCc2c[nH]c3ccccc23)ccc1OCc1ccc(Cl)nc1 |  | MIC (Bacillus subtilis [1]): 250 µM (≈ 105 µg/mL)
8 | CNCCCNCc1ccc(OCC(N)=O)c(OC)c1 | inactive | 
9 | NC(=O)c1ncn([C@H]2C[C@@H](CO)[C@H](O)[C@@H]2O)n1 | inactive | 
10 | NC[C@@H]1O[C@H](O[C@H]2[C@@H](O)[C@H](O[C@@H]3[C@@H](O)[C@H](N)C[C@H](N)[C@H]3O[C@H]3O[C@H](CN)[C@@H](O)[C@H](O)[C@H]3N)O[C@@H]2CO)[C@H](N)[C@@H](O)[C@@H]1O [FRAMYCETIN] |  | IC50 [2]: 400 nM

Continued, in another order:

Row | inhibition (Escherichia coli) | SMILES | also measured
11 | 36% | CC(O)CNCCNCc1ccccc1 (configuration not stated) | 
12 | 71% | COc1cccc(CNCCc2c[nH]c3ccccc23)c1OCc1ccccc1F | MIC (Bacillus subtilis [1]): 125 µM (≈ 50.6 µg/mL)
13 | 61% | Nc1cc(NC2OC(CO)C(O)C(O)C2O)ccc1[N+](=O)[O-] (configuration not stated) | 
14 | 64% | CC(O)CNCCNCc1cccc2ccccc12 (configuration not stated) | 
15 | 82% | COc1cc(CNCCc2c[nH]c3ccccc23)cc(Cl)c1OCC(N)=O | growth inhibition (GI) (Bacillus subtilis [3]): inactive

— ChEMBL document CHEMBL3217658, “Scaffold-hopping from aminoglycosides to small synthetic inhibitors of bacterial protein biosynthesis using a pseudoreceptor model” (Medchemcomm, 2011)
